Experimental data from the supplement of paper PMC10307832.

Key:
Assay in all cases: relative viability (nuclei count vs DMSO), 5 days (fraction); higher = more cells survive
Dabrafenib + Bortezomib = compound: CC(C)(C)c1nc(-c2cccc(NS(=O)(=O)c3c(F)cccc3F)c2F)c(-c2ccnc(N)n2)s1 [Dabrafenib] + CC(C)C[C@H](NC(=O)[C@H](Cc1ccccc1)NC(=O)c1cnccn1)B(O)O [Bortezomib] (partner 0.002 µM)
Procedure, shortened: (§1)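 Five library-drug doses in √10 steps were combined with a fixed anchor-drug dose, or a single drug was given alone, by pin tool to lung cancer cell lines in 1536-well plates the day after seeding. Nuclei were stained and counted after 5 days. Relative viability is the nuclei count in treated wells over that in vehicle wells, taken as the median of duplicate plates.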

Dabrafenib + Decitabine = compound: CC(C)(C)c1nc(-c2cccc(NS(=O)(=O)c3c(F)cccc3F)c2F)c(-c2ccnc(N)n2)s1 [Dabrafenib] + Nc1ncn([C@H]2C[C@H](O)[C@@H](CO)O2)c(=O)n1 [Decitabine] (partner 2 µM)
Procedure, shortened: as §1

VX-702 + Luminespib = compound: NC(=O)c1ccc(N(C(N)=O)c2c(F)cccc2F)nc1-c1ccc(F)cc1F [VX-702] + CCNC(=O)c1noc(-c2cc(C(C)C)c(O)cc2O)c1-c1ccc(CN2CCOCC2)cc1 [Luminespib] (partner 0.01 µM)
Procedure, shortened: as §1

VX-702 + Dasatinib = compound: NC(=O)c1ccc(N(C(N)=O)c2c(F)cccc2F)nc1-c1ccc(F)cc1F [VX-702] + Cc1nc(Nc2ncc(C(=O)Nc3c(C)cccc3Cl)s2)cc(N2CCN(CCO)CC2)n1 [Dasatinib] (partner 0.075 µM)
Procedure, shortened: as §1

H3255 was tested, and the relative viability (Dabrafenib + Bortezomib; first compound 0.003 µM) was 0.703, the relative viability (Dabrafenib + Bortezomib; first compound 0.009487 µM) was 0.858 and the relative viability (Dabrafenib + Bortezomib; first compound 0.03 µM) was 0.997. It also gave a relative viability (Dabrafenib + Bortezomib; first compound 0.09487 µM) of 0.642, a relative viability (Dabrafenib + Bortezomib; first compound 0.3 µM) of 1.09 and a relative viability (Dabrafenib + Decitabine; first compound 0.003 µM) of 0.539. The relative viability (Dabrafenib + Decitabine; first compound 0.009487 µM) was 0.704, the relative viability (Dabrafenib + Decitabine; first compound 0.03 µM) was 0.585 and the relative viability (Dabrafenib + Decitabine; first compound 0.09487 µM) was 0.625. The relative viability (Dabrafenib + Decitabine; first compound 0.3 µM) was 0.649, the relative viability (VX-702 + Luminespib; first compound 0.02 µM) was 1.09 and the relative viability (VX-702 + Luminespib; first compound 0.2 µM) was 0.803. The relative viability (VX-702 + Luminespib; first compound 0.6325 µM) was 0.957, the relative viability (VX-702 + Luminespib; first compound 2 µM) was 1.11 and the relative viability (VX-702 + Dasatinib; first compound 0.02 µM) was 0.312. It also gave a relative viability (VX-702 + Dasatinib; first compound 0.2 µM) of 0.301, a relative viability (VX-702 + Dasatinib; first compound 0.6325 µM) of 0.44 and a relative viability (VX-702 + Dasatinib; first compound 2 µM) of 0.409.
With 201T the relative viability (Dabrafenib + Bortezomib; first compound 0.003 µM) was 1.08, the relative viability (Dabrafenib + Bortezomib; first compound 0.009487 µM) was 1.07 and the relative viability (Dabrafenib + Bortezomib; first compound 0.03 µM) was 1.06. It also gave a relative viability (Dabrafenib + Bortezomib; first compound 0.09487 µM) of 1.11, a relative viability (Dabrafenib + Bortezomib; first compound 0.3 µM) of 1.1 and a relative viability (Dabrafenib + Decitabine; first compound 0.003 µM) of 0.853. It also gave a relative viability (Dabrafenib + Decitabine; first compound 0.009487 µM) of 0.825, a relative viability (Dabrafenib + Decitabine; first compound 0.03 µM) of 0.731 and a relative viability (Dabrafenib + Decitabine; first compound 0.09487 µM) of 0.846. The relative viability (Dabrafenib + Decitabine; first compound 0.3 µM) was 0.769, the relative viability (VX-702 + Luminespib; first compound 0.02 µM) was 1 and the relative viability (VX-702 + Luminespib; first compound 0.2 µM) was 1.04. It also gave a relative viability (VX-702 + Luminespib; first compound 0.6325 µM) of 0.992, a relative viability (VX-702 + Luminespib; first compound 2 µM) of 1.07 and a relative viability (VX-702 + Dasatinib; first compound 0.02 µM) of 0.578. The relative viability (VX-702 + Dasatinib; first compound 0.2 µM) was 0.542, the relative viability (VX-702 + Dasatinib; first compound 0.6325 µM) was 0.587 and the relative viability (VX-702 + Dasatinib; first compound 2 µM) was 0.576.
HCC-44 showed a relative viability (Dabrafenib + Bortezomib; first compound 0.003 µM) of 0.884, a relative viability (Dabrafenib + Bortezomib; first compound 0.009487 µM) of 0.854 and a relative viability (Dabrafenib + Bortezomib; first compound 0.03 µM) of 0.935. It also gave a relative viability (Dabrafenib + Bortezomib; first compound 0.09487 µM) of 0.853, a relative viability (Dabrafenib + Bortezomib; first compound 0.3 µM) of 0.964 and a relative viability (Dabrafenib + Decitabine; first compound 0.003 µM) of 1.04. The relative viability (Dabrafenib + Decitabine; first compound 0.009487 µM) was 0.851, the relative viability (Dabrafenib + Decitabine; first compound 0.03 µM) was 0.921 and the relative viability (Dabrafenib + Decitabine; first compound 0.09487 µM) was 0.963. The relative viability (Dabrafenib + Decitabine; first compound 0.3 µM) was 0.872, the relative viability (VX-702 + Luminespib; first compound 0.02 µM) was 0.84 and the relative viability (VX-702 + Luminespib; first compound 0.2 µM) was 0.983. For the same cell line, the relative viability (VX-702 + Luminespib; first compound 0.6325 µM) was 0.909 and the relative viability (VX-702 + Luminespib; first compound 2 µM) was 1.48.
ABC-1 was tested, and the relative viability (Dabrafenib + Bortezomib; first compound 0.009487 µM) was 0.292, the relative viability (Dabrafenib + Bortezomib; first compound 0.03 µM) was 0.265 and the relative viability (Dabrafenib + Bortezomib; first compound 0.09487 µM) was 0.31. It also gave a relative viability (Dabrafenib + Bortezomib; first compound 0.3 µM) of 0.288, a relative viability (Dabrafenib + Decitabine; first compound 0.009487 µM) of 1.07 and a relative viability (Dabrafenib + Decitabine; first compound 0.03 µM) of 1.15. It also gave a relative viability (Dabrafenib + Decitabine; first compound 0.09487 µM) of 1.28, a relative viability (Dabrafenib + Decitabine; first compound 0.3 µM) of 1.54 and a relative viability (VX-702 + Luminespib; first compound 0.02 µM) of 0.518. It also gave a relative viability (VX-702 + Luminespib; first compound 0.2 µM) of 0.48, a relative viability (VX-702 + Luminespib; first compound 0.6325 µM) of 0.567 and a relative viability (VX-702 + Luminespib; first compound 2 µM) of 0.894. For the same cell line, the relative viability (VX-702 + Dasatinib; first compound 0.02 µM) was 0.666, the relative viability (VX-702 + Dasatinib; first compound 0.2 µM) was 0.535 and the relative viability (VX-702 + Dasatinib; first compound 0.6325 µM) was 0.573. The relative viability (VX-702 + Dasatinib; first compound 2 µM) was 0.562.
With HARA the relative viability (Dabrafenib + Bortezomib; first compound 0.003 µM) was 1.17, the relative viability (Dabrafenib + Bortezomib; first compound 0.009487 µM) was 1.16 and the relative viability (Dabrafenib + Bortezomib; first compound 0.03 µM) was 1. For the same cell line, the relative viability (Dabrafenib + Bortezomib; first compound 0.09487 µM) was 1.06, the relative viability (Dabrafenib + Bortezomib; first compound 0.3 µM) was 1.27 and the relative viability (Dabrafenib + Decitabine; first compound 0.009487 µM) was 0.537. For the same cell line, the relative viability (Dabrafenib + Decitabine; first compound 0.03 µM) was 0.595, the relative viability (Dabrafenib + Decitabine; first compound 0.09487 µM) was 0.539 and the relative viability (Dabrafenib + Decitabine; first compound 0.3 µM) was 0.499. For the same cell line, the relative viability (VX-702 + Luminespib; first compound 0.02 µM) was 0.743, the relative viability (VX-702 + Luminespib; first compound 0.2 µM) was 0.75 and the relative viability (VX-702 + Luminespib; first compound 0.6325 µM) was 0.58. For the same cell line, the relative viability (VX-702 + Luminespib; first compound 2 µM) was 0.947, the relative viability (VX-702 + Dasatinib; first compound 0.02 µM) was 0.224 and the relative viability (VX-702 + Dasatinib; first compound 0.2 µM) was 0.268. It also gave a relative viability (VX-702 + Dasatinib; first compound 0.6325 µM) of 0.36 and a relative viability (VX-702 + Dasatinib; first compound 2 µM) of 0.329.
